# Results: patent USRE48461E1, “Modulation of androgen receptor expression” (Ionis Pharmaceuticals, Inc., priority 2012, dated 2021)
# pIC50: −log10 of the molar value. Oligonucleotides are written 5' to 3', each unit as a sugar letter and its base; * is a phosphorothioate linkage, no mark a phosphodiester; rarer units and linkages stand in square brackets, end groups in braces. Plain capitals give the bases only. k = constrained ethyl (cEt); [5mC] = 5-methylcytosine; d = 2'-deoxy (DNA)
# Tests used:
# AR mRNA [1] = test: Antisense inhibition of human AR in HuVEC cells, single concentration (electroporation, qRT-PCR RTS3559); assay type: cell-based; details: electroporation, approximately 24 hours, relative to untreated control
# How it was run: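 AR mRNA levels were measured with human primer-probe set RTS3559 and adjusted for total RNA (RIBOGREEN). Cells were HuVEC, with each antisense oligonucleotide delivered by electroporation at one concentration.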
# AR mRNA [2] = test: Dose-dependent antisense inhibition of human AR in HuVEC cells (electroporation, qRT-PCR RTS3559, IC50); assay type: cell-based; details: HuVEC, electroporation, approximately 16 hours
# How it was run: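 HuVEC cells dosed with antisense oligonucleotides by electroporation and treated approximately 16 hours. AR mRNA quantified by real-time qPCR with primer probe set RTS3559 and normalised to total RNA by RIBOGREEN; IC50 from dose-response.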
# [3] = Table 22, 500 nM oligonucleotide
# [4] = Table 23, 500 nM oligonucleotide
# [5] = Table 24, 1,000 nM oligonucleotide
Substance,"percent inhibition of AR, 46.9 nM (AR mRNA [2]; Table 34)","percent inhibition of AR, 187.5 nM (AR mRNA [2]; Table 34)","percent inhibition of AR, 750.0 nM (AR mRNA [2]; Table 34)","percent inhibition of AR, 3000.0 nM (AR mRNA [2]; Table 34)",pIC50 (AR mRNA [2]; Table 34),"percent inhibition of AR, 46.9 nM (AR mRNA [2]; Table 35)","percent inhibition of AR, 187.5 nM (AR mRNA [2]; Table 35)","percent inhibition of AR, 750.0 nM (AR mRNA [2]; Table 35)","percent inhibition of AR, 3000.0 nM (AR mRNA [2]; Table 35)",pIC50 (AR mRNA [2]; Table 35),% inhibition (AR mRNA [1]; [5]),other results
583996 (k[5mC]*kG*k[5mC]*d[5mC]*dA*dG*dG*dG*dT*dA*d[5mC]*d[5mC]*dA*k[5mC]*kA*k[5mC]; antisense) [compound 583996],26%,12%,50%,70%,6.15,,,,,,,% inhibition (AR mRNA [1]; [3]): 33%
583998 (k[5mC]*kA*kT*dG*d[5mC]*d[5mC]*dG*d[5mC]*d[5mC]*dA*dG*dG*dG*kT*kA*k[5mC]; antisense) [compound 583998],4%,25%,38%,70%,6.05,,,,,,,% inhibition (AR mRNA [1]; [3]): 45%
583999 (kA*k[5mC]*k[5mC]*dA*dT*dG*d[5mC]*d[5mC]*dG*d[5mC]*d[5mC]*dA*dG*kG*kG*kT; antisense) [compound 583999],13%,12%,30%,64%,5.82,,,,,,,% inhibition (AR mRNA [1]; [3]): 29%
584002 (k[5mC]*kT*kG*d[5mC]*dT*d[5mC]*dA*d[5mC]*d[5mC]*dA*dT*dG*d[5mC]*k[5mC]*kG*k[5mC]; antisense) [compound 584002],12%,46%,70%,92%,6.60,,,,,,,% inhibition (AR mRNA [1]; [3]): 30%
584006 (kA*k[5mC]*kA*d[5mC]*dA*dA*dG*dT*dG*dG*dG*dA*d[5mC]*kT*kG*kG; antisense) [compound 584006],21%,26%,59%,88%,6.46,,,,,,,% inhibition (AR mRNA [1]; [3]): 33%
584044 (k[5mC]*k[5mC]*k[5mC]*dT*dT*d[5mC]*dA*dG*d[5mC]*dG*dG*d[5mC]*dT*k[5mC]*kT*kT; antisense) [compound 584044],23%,30%,51%,78%,6.36,,,,,,,% inhibition (AR mRNA [1]; [3]): 29%
584069 (k[5mC]*kA*kG*dA*dG*dT*d[5mC]*dA*dT*d[5mC]*d[5mC]*d[5mC]*dT*kG*k[5mC]*kT; antisense) [compound 584069],18%,40%,63%,82%,6.52,,,,,,,% inhibition (AR mRNA [1]; [4]): 36%
584111 (kG*kT*kT*dT*dT*d[5mC]*dA*dA*dA*dT*dG*d[5mC]*dA*kG*k[5mC]*k[5mC]; antisense) [compound 584111],,,,,,22%,30%,59%,84%,6.48,,% inhibition (AR mRNA [1]; [4]): 33%
584125 (kG*k[5mC]*k[5mC]*dA*dT*dG*dA*dG*dA*d[5mC]*dA*dG*d[5mC]*kT*kT*kT; antisense) [compound 584125],12%,12%,47%,76%,6.14,,,,,,,% inhibition (AR mRNA [1]; [4]): 35%
584128 (kA*kT*kT*d[5mC]*dT*dT*dG*dA*d[5mC]*dT*dG*dT*d[5mC]*kT*kG*kA; antisense) [compound 584128],20%,22%,41%,72%,6.13,,,,,,,% inhibition (AR mRNA [1]; [4]): 38%
584138 (k[5mC]*kG*k[5mC]*dG*d[5mC]*dA*dG*dG*dT*dA*dG*dG*dA*kG*k[5mC]*k[5mC]; antisense) [compound 584138],,,,,,2%,40%,62%,89%,6.43,,% inhibition (AR mRNA [1]; [4]): 35%
584139 (kT*k[5mC]*kT*dA*dA*dA*d[5mC]*dA*dT*dG*dA*d[5mC]*dG*kG*kT*kT; antisense) [compound 584139],13%,33%,56%,85%,6.40,,,,,,,% inhibition (AR mRNA [1]; [4]): 37%
584145 (kA*kT*kG*dG*dG*dA*dG*dT*dA*dA*d[5mC]*dT*dT*kT*kT*kG; antisense) [compound 584145],,,,,,6%,32%,63%,88%,6.44,76%,
584148 (k[5mC]*kA*kT*dA*dT*dT*dA*dT*dT*dG*dT*dG*d[5mC]*kT*kG*k[5mC]; antisense) [compound 584148],,,,,,16%,48%,79%,95%,6.70,85%,
584152 (kG*kA*kG*dT*dT*dG*dT*dG*dA*dT*dT*dT*d[5mC]*kA*kG*kG; antisense) [compound 584152],,,,,,28%,59%,87%,95%,6.96,88%,
584157 (kT*kT*kG*dA*dT*dG*dG*dA*dA*dT*dG*d[5mC]*dT*kG*kA*kT; antisense) [compound 584157],,,,,,,,,,,69%,"percent inhibition of AR, 46.9 nM (AR mRNA [2]; Table 36): 6%; percent inhibition of AR, 187.5 nM (AR mRNA [2]; Table 36): 6%; percent inhibition of AR, 750.0 nM (AR mRNA [2]; Table 36): 52%; percent inhibition of AR, 3000.0 nM (AR mRNA [2]; Table 36): 82%; pIC50 (AR mRNA [2]; Table 36): 6.23"
584158 (kG*kG*kT*dT*dA*dA*d[5mC]*dT*dT*dT*d[5mC]*dT*d[5mC]*kT*kG*kA; antisense) [compound 584158],,,,,,,,,,,69%,"percent inhibition of AR, 46.9 nM (AR mRNA [2]; Table 36): 14%; percent inhibition of AR, 187.5 nM (AR mRNA [2]; Table 36): 37%; percent inhibition of AR, 750.0 nM (AR mRNA [2]; Table 36): 70%; percent inhibition of AR, 3000.0 nM (AR mRNA [2]; Table 36): 89%; pIC50 (AR mRNA [2]; Table 36): 6.59"
584162 (kT*kG*kG*dA*dT*dT*dG*dT*dA*dA*dA*dT*dT*kA*k[5mC]*kG; antisense) [compound 584162],,,,,,24%,45%,80%,92%,6.74,82%,
584165 (kT*k[5mC]*kA*dA*dT*d[5mC]*dT*dA*dG*dA*dT*dA*d[5mC]*k[5mC]*kA*kT; antisense) [compound 584165],,,,,,,,,,,70%,"percent inhibition of AR, 46.9 nM (AR mRNA [2]; Table 36): 12%; percent inhibition of AR, 187.5 nM (AR mRNA [2]; Table 36): 34%; percent inhibition of AR, 750.0 nM (AR mRNA [2]; Table 36): 66%; percent inhibition of AR, 3000.0 nM (AR mRNA [2]; Table 36): 89%; pIC50 (AR mRNA [2]; Table 36): 6.52"
584166 (k[5mC]*kA*k[5mC]*dA*dT*d[5mC]*dA*dG*dA*dA*dG*dG*dA*kG*kT*kA; antisense) [compound 584166],,,,,,34%,52%,84%,92%,7.00,89%,
584167 (kG*kA*kG*dT*dG*dT*dT*dA*dA*dT*dG*dA*dA*kG*kA*k[5mC]; antisense) [compound 584167],,,,,,13%,45%,76%,93%,6.68,78%,
584168 (k[5mC]*kT*kG*dA*dT*dT*dA*dG*d[5mC]*dT*dA*dT*dG*kA*k[5mC]*k[5mC]; antisense) [compound 584168],,,,,,,,,,,70%,"percent inhibition of AR, 46.9 nM (AR mRNA [2]; Table 36): 5%; percent inhibition of AR, 187.5 nM (AR mRNA [2]; Table 36): 32%; percent inhibition of AR, 750.0 nM (AR mRNA [2]; Table 36): 70%; percent inhibition of AR, 3000.0 nM (AR mRNA [2]; Table 36): 91%; pIC50 (AR mRNA [2]; Table 36): 6.49"
584179 (kA*kT*kG*dA*dG*dT*d[5mC]*d[5mC]*dT*d[5mC]*dA*dG*dA*kA*kT*k[5mC]; antisense) [compound 584179],,,,,,1%,25%,62%,87%,6.36,74%,
584180 (kG*kT*kA*dG*dA*dT*dT*d[5mC]*dT*dA*dG*d[5mC]*dT*kT*kT*kG; antisense) [compound 584180],,,,,,26%,56%,84%,96%,6.92,81%,
